Laboratory results from patent US10858352B2, “Pharmaceutical compounds” (Heptares Therapeutics Limited, priority 2018, dated 2020).
Where two headings read alike, the source gives them in different places.

How the values were obtained:
Assay type in all cases: cell-based
[1] = target: T1, human muscarinic M1 receptor (Homo sapiens, UniProt P11229); experiment: Alphascreen Surefire phospho-ERK1/2 functional assay, M1; conditions: for Emax: CHO, read-out: % Emax cf. ACh (M1), CHO cells stably expressing human M1; for Emax / % Emax cf. ACh (M1): Emax relative to ACh; for EC50 / pEC50 M1: agonist 5 min, 37° C.
T1 sequence (P11229 1-460): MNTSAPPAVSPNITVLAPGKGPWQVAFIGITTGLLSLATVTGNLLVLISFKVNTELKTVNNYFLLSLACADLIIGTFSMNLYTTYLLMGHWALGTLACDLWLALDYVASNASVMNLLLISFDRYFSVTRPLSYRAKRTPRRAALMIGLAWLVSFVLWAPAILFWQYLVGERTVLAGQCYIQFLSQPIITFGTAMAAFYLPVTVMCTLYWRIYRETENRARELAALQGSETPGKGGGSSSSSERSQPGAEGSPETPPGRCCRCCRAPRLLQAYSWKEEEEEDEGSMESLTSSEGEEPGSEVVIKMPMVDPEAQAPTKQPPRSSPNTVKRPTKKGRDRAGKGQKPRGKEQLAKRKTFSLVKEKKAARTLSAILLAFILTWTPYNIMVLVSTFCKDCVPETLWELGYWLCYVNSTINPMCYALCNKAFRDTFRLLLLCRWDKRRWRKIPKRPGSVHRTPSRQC
Experimental: (§1) ERK1/2 phosphorylation is a downstream consequence of both Gq/11 and Gi/o protein coupled receptor activation, making it highly suitable for the assessment of M1, M3 (Gq/11 coupled) and M2, M4 receptors (Gi/o coupled), rather than using different assay formats for different receptor subtypes. CHO cells stably expressing the human muscarinic M1, M2, M3 or M4 receptor were plated (25K/well) onto 96-well tissue culture plates in MEM-alpha+10% dialysed FBS. Once adhered, cells were serum-starved overnight. Agonist stimulation was performed by the addition of 5 μL agonist to the cells for 5 min (37° C.). Media was removed and 50 μL of lysis buffer added. After 15 min, a 4 μL sample was transferred to 384-well plate and 7 μL of detection mixture added. […]

[2] = target: T2, human muscarinic M2 receptor (Homo sapiens, UniProt P08172); experiment: Alphascreen Surefire phospho-ERK1/2 functional assay, M2; conditions: for Emax: CHO
T2 sequence (P08172 1-466): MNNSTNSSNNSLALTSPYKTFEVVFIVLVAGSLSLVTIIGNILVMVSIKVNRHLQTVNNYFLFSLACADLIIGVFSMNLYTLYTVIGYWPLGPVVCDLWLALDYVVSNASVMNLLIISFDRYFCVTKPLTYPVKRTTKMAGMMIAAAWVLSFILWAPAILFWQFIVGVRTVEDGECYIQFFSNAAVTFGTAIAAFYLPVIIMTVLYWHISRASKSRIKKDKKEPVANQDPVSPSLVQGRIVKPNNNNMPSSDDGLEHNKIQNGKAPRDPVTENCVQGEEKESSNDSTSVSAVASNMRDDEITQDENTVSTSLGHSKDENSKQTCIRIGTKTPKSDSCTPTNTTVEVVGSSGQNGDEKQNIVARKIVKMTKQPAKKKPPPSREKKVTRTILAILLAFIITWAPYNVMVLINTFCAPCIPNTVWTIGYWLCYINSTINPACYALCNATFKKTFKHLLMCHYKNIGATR
Experimental: as §1

[3] = target: T3, human muscarinic M3 receptor (Homo sapiens, UniProt P20309); experiment: Alphascreen Surefire phospho-ERK1/2 functional assay, M3; conditions: for Emax: CHO
T3 construct: expressed in transfected cells
Experimental: as §1

[4] = target: T4, human muscarinic M4 receptor (Homo sapiens, UniProt P08173); experiment: Alphascreen Surefire phospho-ERK1/2 functional assay, M4; conditions: for EC50 / % Emax cf. ACh (M4) / pEC50 M4: CHO cells stably expressing human M4; for EC50 / pEC50 M4: agonist 5 min, 37° C.; for EC50: read-out: pEC50 M4 (converted); for Emax: CHO, read-out: % Emax cf. ACh (M4), CHO cells stably expressing human M4; for Emax / % Emax cf. ACh (M4): Emax relative to ACh
T4 construct: expressed in transfected cells
T4 sequence (P08173 1-479): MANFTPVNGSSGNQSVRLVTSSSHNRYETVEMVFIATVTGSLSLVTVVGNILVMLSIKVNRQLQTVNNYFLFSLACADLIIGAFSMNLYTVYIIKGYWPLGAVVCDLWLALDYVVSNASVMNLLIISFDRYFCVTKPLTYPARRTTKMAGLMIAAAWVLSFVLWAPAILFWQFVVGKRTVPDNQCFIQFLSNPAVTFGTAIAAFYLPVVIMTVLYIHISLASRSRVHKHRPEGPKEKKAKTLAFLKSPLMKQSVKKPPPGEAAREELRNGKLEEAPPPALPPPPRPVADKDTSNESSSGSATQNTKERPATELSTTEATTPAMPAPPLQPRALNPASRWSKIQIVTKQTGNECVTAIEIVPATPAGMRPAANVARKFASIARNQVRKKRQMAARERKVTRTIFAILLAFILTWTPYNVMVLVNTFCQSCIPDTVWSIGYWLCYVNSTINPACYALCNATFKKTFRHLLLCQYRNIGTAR
Experimental: as §1

[5] = pEC50 M1, CHO cells stably expressing human M1
[6] = CHO cells stably expressing human M1
[7] = CHO cells stably expressing human M1, read-out: pEC50 M1 (converted)
[8] = CHO cells stably expressing human M2, agonist 5 min, 37° C., read-out: pEC50 M2 (converted)
[9] = read-out: % Emax cf. ACh (M2), CHO cells stably expressing human M2, Emax relative to ACh
[10] = CHO cells stably expressing human M3, agonist 5 min, 37° C., read-out: pEC50 M3 (converted)
[11] = read-out: % Emax cf. ACh (M3), CHO cells stably expressing human M3, Emax relative to ACh
[12] = CHO cells stably expressing human M2, Emax relative to ACh
[13] = CHO cells stably expressing human M2, agonist 5 min, 37° C.
[14] = CHO cells stably expressing human M3, Emax relative to ACh
[15] = CHO cells stably expressing human M3, agonist 5 min, 37° C.

T3 sequence (P20309 whole entry): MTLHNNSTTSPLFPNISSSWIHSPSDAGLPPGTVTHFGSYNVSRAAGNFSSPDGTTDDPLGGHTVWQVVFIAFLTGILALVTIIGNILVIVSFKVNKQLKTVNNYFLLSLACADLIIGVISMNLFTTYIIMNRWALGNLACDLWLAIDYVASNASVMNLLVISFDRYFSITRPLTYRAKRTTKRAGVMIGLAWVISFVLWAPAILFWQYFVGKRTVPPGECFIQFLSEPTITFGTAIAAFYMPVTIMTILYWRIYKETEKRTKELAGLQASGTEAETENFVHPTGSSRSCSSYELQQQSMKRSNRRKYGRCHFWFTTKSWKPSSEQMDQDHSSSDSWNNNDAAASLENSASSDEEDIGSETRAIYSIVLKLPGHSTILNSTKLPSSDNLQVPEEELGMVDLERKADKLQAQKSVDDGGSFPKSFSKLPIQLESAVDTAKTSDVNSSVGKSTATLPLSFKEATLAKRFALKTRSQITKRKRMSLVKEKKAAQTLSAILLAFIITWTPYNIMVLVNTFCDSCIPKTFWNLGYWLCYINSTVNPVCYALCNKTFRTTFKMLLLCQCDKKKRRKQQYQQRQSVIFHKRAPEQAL

Row | Structure (SMILES) | Emax [1] | Emax ([2]; read-out: % Emax cf. ACh (M2)) | Emax ([3]; read-out: % Emax cf. ACh (M3)) | EC50 [4] | Emax [4] | % Emax cf. ACh (M1) [1, 6] | EC50 [1, 7] | EC50 [2, 8] | Emax [2, 9] | EC50 [3, 10] | Emax [3, 11] | % Emax cf. ACh (M4) [4] | further results
1 | Cc1noc(N2CCCC(N3CCC4(CC3)C(=O)Nc3ccccc34)CC2)n1 (single isomer, unassigned) [10-6 Isomer 1] | 76% | 60% | 4% | 77.6 nM | 77% | – | – | – | – | – | – | – | EC50 [1, 5]: 661 nM; EC50 [2]: > 20000 nM; EC50 [3]: > 20000 nM
2 | Cc1noc(N2CCCC(N3CCC(N4C[C@H](F)C[C@@H]4CO)CC3)CC2)n1 (single isomer, unassigned) [10-7 Isomer 1] | – | – | – | 105 nM | 89% | (44) % | 3720 nM | > 20000 nM | 15% | > 20000 nM | 2% | – | –
3 | Cc1noc(N2CC3CC(N4CCC5(CC4)CNC(=O)C5)CC2C3)n1 (single isomer, unassigned) [11-2 Isomer 2] | 67% | – | – | > 20000 nM | 15% | – | 9.55 nM | > 20000 nM | 8% | > 20000 nM | 5% | – | –
4 | Cc1noc(N2CC3CC(N4CCC5(CC4)CNC(=O)O5)CC2C3)n1 (single isomer, unassigned) [11-3 Isomer 2] | 65% | – | – | > 20000 nM | 11% | – | 70.8 nM | > 20000 nM | 21% | > 20000 nM | 22% | – | –
5 | Cc1noc(N2CC3CCC2CC3N2CCC3(CC2)CNC(=O)C3)n1 (single isomer, unassigned) [12-1 Isomer 2] | – | – | – | 117 nM | – | (106) % | 32.4 nM | > 20000 nM | 6% | > 20000 nM | 2% | (30) % | –
6 | Cc1noc(N2CC3CCC2CC3N2CCC3(CC2)CNC(=O)O3)n1 (single isomer, unassigned) [12-2 Isomer 2] | 80% | – | – | > 20000 nM | 18% | – | 398 nM | > 20000 nM | 14% | > 20000 nM | 1% | – | –
7 | O=C1CC2(CCN(C3CC4CCC(C3)N4c3nc(C(F)(F)F)no3)CC2)CN1 (single isomer, unassigned) [12-3 Isomer 1] | 67% | 19% | 31% | > 20000 nM | 14% | – | – | – | – | – | – | – | EC50 [1, 5]: 31.6 nM; EC50 [2]: > 20000 nM; EC50 [3]: > 20000 nM
8 | CCC1(NC(=O)C2CCN(C3CC4CCC(C3)N4c3nc(C)no3)CC2)CCC1 (single isomer, unassigned) [12-8 Isomer 2] | 104% | 33% | 3% | 933 nM | 109% | – | 135 nM | 2450 nM | – | > 20000 nM | – | – | –
9 | CC1(NC(=O)C2CCN(C3CC4CCC(C3)N4c3nc(C(F)(F)F)no3)CC2)CCC1 (single isomer, unassigned) [12-14 Isomer 2] | – | 25% | 9% | 331 nM | – | (115) % | – | – | – | – | – | (40) % | EC50 [1, 5]: 18.6 nM; EC50 [2]: > 20000 nM; EC50 [3]: > 20000 nM
10 | CC(=O)N(CC1(C)CCC1)C1CCN(C2CC3CCC(C2)N3c2nc(C)no2)CC1 (single isomer, unassigned; isomer 1) [12-18 Isomer 1] | – | – | – | – | – | (87) % | – | – | – | – | – | (62) % | pEC50 M1 [1, 6]: 7.00; % Emax cf. ACh (M2) [2, 12]: (27) %; pEC50 M2 [2, 13]: 5.23; % Emax cf. ACh (M3) [3, 14]: (15) %; pEC50 M3 [3, 15]: <4.70; pEC50 M4 [4]: 6.68
11 | CCN(CC)C(=O)[C@H]1[C@@H]2CN(C3CC4CCC(C3)N4c3nc(C)no3)C[C@@H]21 (single isomer, unassigned; isomer 1) [12-25 Isomer 1] | – | – | – | – | – | (102) % | – | – | – | – | – | (22) % | pEC50 M1 [1, 6]: 6.70; % Emax cf. ACh (M2) [2, 12]: (31) %; pEC50 M2 [2, 13]: <4.70; % Emax cf. ACh (M3) [3, 14]: (50) %; pEC50 M3 [3, 15]: <4.70; pEC50 M4 [4]: <4.70
